The results in this text go back to patent US20240351997A1, “NOVEL PARP7 INHIBITOR AND USE THEREOF” (SHANGHAI QILU PHARMACEUTICAL RESEARCH AND DEVELOPMENT …, priority 2021, published 2024).

The target of the experiment is PARP7 (Homo sapiens (Human), UniProt Q7Z3E1). Briefly: In vitro enzymology experiment of PARP7 (enzymatic inhibition). Type of experiment: biochemical. An outline of the steps: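 Histone-coated plate ADP-ribosylation format: compound preincubated 10 min at room temperature with preincubated (25 °C, 10 min) enzyme mixture; incorporated biotin detected by streptavidin-HRP and QuantaRed fluorescence (Ex550/Em620).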
Chain of PARP7 (Q7Z3E1 whole entry): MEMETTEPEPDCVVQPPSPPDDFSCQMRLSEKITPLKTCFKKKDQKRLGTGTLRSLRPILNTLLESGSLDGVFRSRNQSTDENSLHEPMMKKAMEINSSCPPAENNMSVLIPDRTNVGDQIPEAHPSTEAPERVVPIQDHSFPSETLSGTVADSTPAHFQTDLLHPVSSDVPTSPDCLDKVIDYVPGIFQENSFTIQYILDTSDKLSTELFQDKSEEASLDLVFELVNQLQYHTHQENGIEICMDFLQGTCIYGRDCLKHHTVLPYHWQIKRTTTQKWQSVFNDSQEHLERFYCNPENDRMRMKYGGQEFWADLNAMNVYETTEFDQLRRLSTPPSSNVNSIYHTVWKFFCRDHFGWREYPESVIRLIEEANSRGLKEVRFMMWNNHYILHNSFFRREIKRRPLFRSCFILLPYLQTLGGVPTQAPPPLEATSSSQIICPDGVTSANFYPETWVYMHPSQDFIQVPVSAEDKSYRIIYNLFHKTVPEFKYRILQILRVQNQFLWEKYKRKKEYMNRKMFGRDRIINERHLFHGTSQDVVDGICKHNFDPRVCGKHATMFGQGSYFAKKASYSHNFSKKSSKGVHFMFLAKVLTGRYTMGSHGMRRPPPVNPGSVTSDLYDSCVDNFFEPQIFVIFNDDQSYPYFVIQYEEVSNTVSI
In the case of `C[C@@H]1CN(C(=O)O[C@@H](C)Cc2c[nH]c(=O)c(C(F)(F)F)c2)C[C@@H](C)N1c1ncc(C(F)(F)F)cn1` [Example 157, (S)-1-(6-Oxo-5-(trifluoromethyl)-1,6-dihydropyridin-3-yl)propan-2-yl (3R,5R)-3,5-dimethyl-4-(5-(trifluoromethyl)pyrimidin-2-yl)piperazine-1-carboxylate], the 50% inhibitory concentration (IC50) (in general, the point on the concentration scale where inhibition reaches its midpoint) came out at 0.9 nM.

In turn, `O=C(OCCc1c[nH]c(=O)c(C(F)(F)F)c1)N1CCN(c2ncc(C(F)(F)F)cn2)C[C@@H]1CO` [Example 107, 2-(6-Oxo-5-(trifluoromethyl)-1,6-dihydropyridin-3-yl)ethyl (R)-2-(hydroxymethyl)-4-(5-(trifluoromethyl)pyrimidin-2-yl)piperazine-1-carboxylate] came in with an IC50 of 0.72 nM.

With `CC[C@@H]1CN(c2ncc(C(F)(F)F)cn2)CCN1C(=O)OCCc1c[nH]c(=O)c(C(F)(F)F)c1` [Example 122, 2-(6-Oxo-5-(trifluoromethyl)-1,6-dihydropyridin-3-yl)ethyl (R)-2-ethyl-4-(5-(trifluoromethyl)pyrimidin-2-yl)piperazine-1-carboxylate], the IC50 is 0.69 nM.

On to `O=C(O[C@H]1CCC[C@H]1c1c[nH]c(=O)c(C(F)(F)F)c1)N1CCN(c2ncc(C(F)(F)F)cn2)CC1` [Example 82, (1S,2S)-2-(6-Oxo-5-(trifluoromethyl)-1,6-dihydropyridin-3-yl)cyclopentyl 4-(5-(trifluoromethyl)pyrimidin-2-yl)piperazine-1-carboxylate], for which the IC50 came to 1.44 nM.

Turning to `Cc1cnc(N2C[C@@H](C)N(C(=O)O[C@@H](C)Cc3c[nH]c(=O)c(C(F)(F)F)c3)C[C@H]2C)nc1` [Example 169, (S)-1-(6-Oxo-5-(trifluoromethyl)-1,6-dihydropyridin-3-yl)propan-2-yl (2R,5R)-2,5-dimethyl-4-(5-methylpyrimidin-2-yl)piperazine-1-carboxylate], the IC50 was found to be 0.7 nM.

In the case of `C[C@@H]1CN(c2ncc(C3CC3)cn2)[C@@H](C)CN1C(=O)O[C@@H](C)Cc1c[nH]c(=O)c(C(F)(F)F)c1` [Example 173, (S)-1-(6-Oxo-5-(trifluoromethyl)-1,6-dihydropyridin-3-yl)propan-2-yl (2R,5S)-4-(5-cyclopropylpyrimidin-2-yl)-2,5-dimethylpiperazine-1-carboxylate], the half-inhibitory concentration (IC50) turned out to be 0.74 nM.

In the case of `Cc1[nH]c(=O)c(C(F)(F)F)cc1C[C@H](C)OC(=O)N1CCN(c2ncc(C(F)(F)F)cn2)CC1` [Example 133, (S)-1-(2-Methyl-6-oxo-5-(trifluoromethyl)-1,6-dihydropyridin-3-yl)propan-2-yl 4-(5-(trifluoromethyl)pyrimidin-2-yl)piperazine-1-carboxylate], the IC50 came out at 0.76 nM.

Turning to `C[C@@H](Cc1c[nH]c(=O)c(C(F)(F)F)c1)OC(=O)N1CC(Nc2ncc(C(F)(F)F)cn2)C1` [Example 54, (S)-1-(6-Oxo-5-(trifluoromethyl)-1,6-dihydropyridin-3-yl)propan-2-yl 3-((5-(trifluoromethyl)pyrimidin-2-yl)amino) azetidine-1-carboxylate], the IC50 came out at 6.23 nM.

As to `O=C(OCCc1c[nH]c(=O)c(C(F)(F)F)c1)N1C2CCC1CN(c1ncc(C(F)(F)F)cn1)C2` [Example 126, 2-(6-Oxo-5-(trifluoromethyl)-1,6-dihydropyridin-3-yl)ethyl 3-(5-(trifluoromethyl)pyrimidin-2-yl)-3,8-diazabicyclo[3.2.1]octane-8-carboxylate], half-maximal inhibition (IC50) was put at 1 nM.

With `O=C(Oc1ccc(F)c(-c2c[nH]c(=O)c(C(F)(F)F)c2)c1)N1CCN(c2ncc(C(F)(F)F)cn2)CC1` [Example 139, 4-Fluoro-3-(6-oxo-5-(trifluoromethyl)-1,6-dihydropyridin-3-yl)phenyl 4-(5-(trifluoromethyl)pyrimidin-2-yl)piperazine-1-carboxylate], the IC50 came to 0.9 nM.

As for `N#Cc1ccc(N2CCN(C(=O)OCCc3c[nH]c(=O)c(C(F)(F)F)c3)CC2)nc1` [Example 144, 2-(6-Oxo-5-(trifluoromethyl)-1,6-dihydropyridin-3-yl)ethyl 4-(5-cyanopyridin-2-yl)piperazine-1-carboxylate], the half-inhibitory concentration (IC50) turned out to be 1.5 nM.

`O=C(CCO[C@H]1CCC[C@@H]1c1c[nH]c(=O)c(C(F)(F)F)c1)N1CCN(c2ncc(C(F)(F)F)cn2)CC1` [Example 39, 5-((1R,2S)-2-(3-Oxo-3-(4-(5-(trifluoromethyl)pyrimidin-2-yl)piperazin-1-yl)propoxy)cyclopentyl)-3-(trifluoromethyl)pyridin-2(1H)-one] showed an IC50 of 1.5 nM.

In turn, `O=C(OCC1CCCC1c1c[nH]c(=O)c(C(F)(F)F)c1)N1CCN(c2ncc(C(F)(F)F)cn2)CC1` (stereo not shown) [Example 59, (2-(6-Oxo-5-(trifluoromethyl)-1,6-dihydropyridin-3-yl)cyclopentyl)methyl 4-(5-(trifluoromethyl)pyrimidin-2-yl)piperazine-1-carboxylate] came in with a 50% inhibitory concentration (IC50) of 1.06 nM.

`O=C(OCCc1c[nH]c(=O)c(C(F)(F)F)c1)N1CC2CCC(C1)N2c1ncc(C(F)(F)F)cn1` [Example 125, 2-(6-Oxo-5-(trifluoromethyl)-1,6-dihydropyridin-3-yl)ethyl 8-(5-(trifluoromethyl)pyrimidin-2-yl)-3,8-diazabicyclo[3.2.1]octane-3-carboxylate] returned an IC50 of 0.71 nM.

`CC(Cc1c[nH]c(=O)c(C(F)(F)F)c1)OC(=O)N1CCN(c2ncc(Br)cn2)CC1` (stereo not shown) [Example 63, 1-(6-Oxo-5-(trifluoromethyl)-1,6-dihydropyridin-3-yl)propan-2-yl 4-(5-bromopyrimidin-2-yl)piperazine-1-carboxylate] yielded an IC50 of 3.12 nM.

For the compound `O=C(CO[C@H]1CCC[C@@H]1c1c[nH]c(=O)c(C(F)(F)F)c1)N1CCN(c2ncc(C(F)(F)F)cn2)CC1` [Example 57, 5-((1R,2S)-2-(2-Oxo-2-(4-(5-(trifluoromethyl)pyrimidin-2-yl)piperazin-1-yl)ethoxy)cyclopentyl)-3-(trifluoromethyl)pyridin-2(1H)-one], the concentration for half-maximal inhibition (IC50) was determined as 0.74 nM.

Regarding `CC(C(=O)N1CCN(c2ncc(C(F)(F)F)cn2)CC1)c1c[nH]c(=O)c(C(F)(F)F)c1` (stereo not shown) [Example 60, 5-(1-Oxo-1-(4-(5-(trifluoromethyl)pyrimidin-2-yl)piperazin-1-yl)propan-2-yl)-3-(trifluoromethyl)pyridin-2(1H)-one], it took 7.02 nM to reach half-maximal inhibition (IC50).

As for `O=C(CCOCCn1c(=O)ccc2c(=O)[nH]ncc21)N1CCN(c2ncc(C(F)(F)F)cn2)CC1` [Example 22, 1-(2-(3-Oxo-3-(4-(5-(trifluoromethyl)pyrimidin-2-yl)piperazin-1-yl)propoxy)ethyl)pyrido[2,3-d]pyridazine-2,5(1H,6H)-dione], the IC50 was 3.6 nM.

The compound `O=C(NCCc1c[nH]c(=O)c(C(F)(F)F)c1)N1CCN(c2ncc(C(F)(F)F)cn2)CC1` [Example 32, N-(2-(6-Oxo-5-(trifluoromethyl)-1,6-dihydropyridin-3-yl)ethyl)-4-(5-(trifluoromethyl)pyrimidin-2-yl)piperazine-1-carboxamide] gave an IC50 of 0.44 nM.

Regarding `C[C@@H]1CN(c2ncc(C3CC3)cn2)[C@@H](C)CN1C(=O)OCCc1c[nH]c(=O)c(C(F)(F)F)c1` [Example 184, 2-(6-Oxo-5-(trifluoromethyl)-1,6-dihydropyridin-3-yl)ethyl (2R,5S)-4-(5-cyclopropylpyrimidin-2-yl)-2,5-dimethylpiperazine-1-carboxylate], the 50% inhibitory concentration (IC50) was found to be 1.2 nM.

The compound `Cc1cnc(N2C[C@@H](C)N(C(=O)OCCc3c[nH]c(=O)c(C(F)(F)F)c3)C[C@@H]2C)nc1` [Example 168, 2-(6-Oxo-5-(trifluoromethyl)-1,6-dihydropyridin-3-yl)ethyl (2R,5S)-2,5-dimethyl-4-(5-methylpyrimidin-2-yl)piperazine-1-carboxylate] gave an IC50 of 0.9 nM.

In turn, `O=C(c1cc(Cc2c[nH]c(=O)c(C(F)(F)F)c2)ccc1F)N1CCN(c2ncc(C(F)(F)F)cn2)CC1` [Example 40, 5-(4-Fluoro-3-(4-(5-(trifluoromethyl)pyrimidin-2-yl)piperazine-1-carbonyl)benzyl)-3-(trifluoromethyl)pyridin-2(1H)-one] returned a half-inhibitory concentration (IC50) of 0.7 nM.

As for `C[C@@H]1CN(C(=O)OCCc2c[nH]c(=O)c(C(F)(F)F)c2)C[C@H](C)N1c1ncc(C(F)(F)F)cn1` [Example 153, 2-(6-Oxo-5-(trifluoromethyl)-1,6-dihydropyridin-3-yl)ethyl (3R,5S)-3,5-dimethyl-4-(5-(trifluoromethyl)pyrimidin-2-yl)piperazine-1-carboxylate], inhibition was half-maximal at 0.65 nM (IC50).

Compound `C[C@@H](Cc1c[nH]c(=O)c(C(F)(F)F)c1)OC(=O)N1CCN(c2cnc(C#N)cn2)CC1` [Example 76, (S)-1-(6-Oxo-5-(trifluoromethyl)-1,6-dihydropyridin-3-yl)propan-2-yl 4-(5-cyanopyrazin-2-yl)piperazine-1-carboxylate] gave an IC50 of 0.67 nM.

As to `CC(Cc1c[nH]c(=O)c(C(F)(F)F)c1)OC(=O)N1CCN(c2ncc(C(F)(F)F)cn2)CC1` (stereo not shown) [Example 33, 1-(6-Oxo-5-(trifluoromethyl)-1,6-dihydropyridin-3-yl)propan-2-yl 4-(5-(trifluoromethyl)pyrimidin-2-yl)piperazine-1-carboxylate], half-maximal inhibition (IC50) required 0.9 nM.

`C[C@@H](Cc1c[nH]c(=O)c(C(F)(F)F)c1)OC(=O)N1CCC(Nc2ncc(C(F)(F)F)cn2)CC1` [Example 72, (S)-1-(6-Oxo-5-(trifluoromethyl)-1,6-dihydropyridin-3-yl)propan-2-yl 4-((5-(trifluoromethyl)pyrimidin-2-yl)amino) piperidine-1-carboxylate] displayed a concentration for half-maximal inhibition (IC50) of 4.98 nM.

Compound `C[C@@H]1CN(C(=O)OCCc2c[nH]c(=O)c(C(F)(F)F)c2)C[C@@H](C)N1c1ncc(C(F)(F)F)cn1` [Example 149, 2-(6-Oxo-5-(trifluoromethyl)-1,6-dihydropyridin-3-yl)ethyl (3R,5R)-3,5-dimethyl-4-(5-(trifluoromethyl)pyrimidin-2-yl)piperazine-1-carboxylate] returned an IC50 of 0.64 nM.

Take `C[C@@H](Cc1c[nH]c(=O)c(C(F)(F)F)c1)OC(=O)N1CCC(c2ccc(C(F)(F)F)cn2)CC1` [Example 99, (S)-1-(6-Oxo-5-(trifluoromethyl)-1,6-dihydropyridin-3-yl)propan-2-yl 4-(5-(trifluoromethyl)pyridin-2-yl)piperidine-1-carboxylate]: the midpoint of inhibition, the IC50, lay at 0.56 nM.
